Reference: patent US5667764A, “Compounds, compositions and methods for binding bio-affecting substances to surface membranes of bio-particles” (Zynaxis, Inc., priority 1992, dated 1997)
Where two headings read alike, the source gives them in different places. Values belong to the compound of their own block, whether it stands above or below them.

Tests used:
myointimal thickening = conditions: animal models; cited from earlier work
[1] = test system: rabbit red blood cell ghosts; assay: Binding of anticoagulant conjugate to rabbit red blood cell ghosts; conditions: 24 h, 37° C.
Procedure: Ghosts were then washed extensively and placed in phosphate buffered saline with lmM EDTA and 5% BSA for 24 h at 37° C. Samples were agitated and a 50 μl aliquot removed from each sample and placed in 200 μl of Triton X-100® in a microtiter plate well (representingtotal suspension fluorescence). The original samples were centrifuged for 10 minutes and a 50 μl sample of the ghost supernatant removed and placed in 200 μl of Triton X-100® (representing free fluorescence in the aqueous phase only). The fluorescence of all samples was determined on a fluorometric microtiter plate reader. Bound fluorescence was determined by subtraction of free from total after correction for background fluorescence from unstained ghosts; the percent free and bound fluorescence was determined by dividing the bound and free fluorescence by total fluorescence, respectively and multiplying by 100.

[2] = test system: lumenal surface of the femoral arteries; assay: Retention at intravascular site; format: in vivo, rabbit
Procedure: To determine whether the compounds of the invention will remain at an intravascular site once applied experiments were performed wherein ^125 I-substituted lipophilic cyanine, prepared as described in Example 2 (compound 12, Reaction Scheme 2) was applied to the lumenal surface of the femoral arteries of anesthetized rabbits. The femoral artery was surgically isolated and a small, proximal side branch was cannulated with a short length of PE10 tubing. A 1 cm arterial segment surrounding the side branch was occluded and 20-50μl of a solution containing ^125 I-substituted compound 12 was administered through the cannula to the occluded section and allowed to remain for 5-10 min. The ^125 I-substituted compound was then withdrawn along with the cannula, the side branch was permanently tied, the femoral artery occlusion removed to allow the return of blood flow, and the femoral incision was closed. ^125 I-radioactivity was then monitored at selected times over the next 3 weeks with a Ludium Model 2200 Scaler Ratemeter and a Model 44-17 2 inch crystal with windows optimized for the detection of ^125 I.

[3] = Source text: The HPLC system used comprised a Waters Model 600E solvent delivery system with W600E gradient controller, U6K injector and Model 990 photodiode array detector. Chromatography conditions were as follows: Column: Waters Nova-Pak (phenyl, 4 μm, 3.9 mm×15 cm); Mobile phase: Solvent A=Water:Methanol:Acetonitrile:PIC A reagent (Waters) (395:25:80:4), Solvent B=Water:Methanol: Acetonitrile:PIC A reagent (225:25:250:4), Solvent C=Methanol:Water:PIC A reagent (490:15:4). Gradient conditions: 100% (A) to 60%:40% (A:B) over 20 minutes then to 100% (C) over 10 minutes followed by 100% (C) for 40 minutes. Flow rate: 2 mL/min. Detection: photodiode array from 240-575 nm.
The rate of acid hydrolysis of hydrazone conjugate (19) to produce 7-N-(5-oxopentanoyl) deacetyl colchicine was studied by HPLC at 3 different pH's.
Buffer solutions were prepared according to the procedures described by Gomori, "Methods in Enzymology", 16:138 (1955). HPLC conditions and retention times were the same as described above.
Compound solutions to be studied were prepared by adding 50 μl of hydrazone conjugate solution (1 mg/ml of methanol) to a screw capped vial (1 ml) containing citrate phosphate buffer (200 μl) of the desired pH. The vials were kept closed and the solutions were analysed by HPLC (350 nm detection) for conjugate (19) remaining and 7-N-(5-oxopentanoyl) deacetyl colchicine produced at 24 h and 48 h. Each hplc injection was […].

A10 cells = assay: Antiproliferative activity on A10 cells after one 10 minute application; format: cell-based, rat; conditions: for Cell count: 10 μM, 10 minute application
Procedure: To determine the antiproliferative action of the compounds of invention, in vitro studies were performed using A10 cells, a clonal cell line originally derived from the thoracic aorta of embryonic rats, that proliferate as myoblasts and develop into cells which phenotypically resemble smooth muscle cells (B. Kimes and B. Brandt, Exptl. Cell Res. 98:349 (1976). Typically, twelve-well plates were seeded with 2500-10,000 A10 cells/cm^2 in Dulbecco's Modified Eagles Medium (DMEM) with 10% fetal calf serum (FCS) and allowed to adhere and stabilize for 24 hours at 37° C. Test substances were then prepared in the required concentrations in appropriate cell binding media and, after aspirating the plating medium, applied to the individual wells at 37° C. for a period of only 10 minutes. The treatments were then aspirated, the wells washed 4 times with non-treatment containing medium and then placed in non-treatment containing DMEM with 10% FCS for the duration of the study. At various times after treatment application, triplicate wells were aspirated, the aspirate saved, and the wells treated with 0.25 ml of 0.25% trypsin to release the adherent cells. The enzymatic action of trypsin on the cells was stopped by addition of excess protein (1.75 ml DMEM+10% FCS), the aspirate returned to the wells, and an aliquot of the resultant cell suspension counted in a Coulter Counter (Model ZM with Sampling Stand II). Cell count was normalized to cells per square centimeter of growing area (surface area of well bottom).

[4] = test system: rabbit hind limb (femoral arterial bed), substance P receptors; assay: Vascular response in rabbit blood perfused hind limb preparation; format: in vivo
Source text: The in vivo receptor pharmacology of the compound produced in Example 3d., above, was studied in a rabbit blood perfused hind limb preparation similar to that described by U. Forstermann et al., J. Pharmacol. Exp. Ther., 234: 1055-61 (1987). Blood from a pentobarbital anesthetized, artificially ventilated rabbit was withdrawn from a cannulated carotid artery, passed within medical grade silastic tubing through a constant speed roller pump, and directed to a cannulated femoral artery. Distal perfusion pressure in the femoral arterial bed was measured (in mm Hg) by means of a micropressure transducer (Millar) passed down the perfusion tubing so as to lie just beyond the tip of the femoral catheter. Initially, pump speed was adjusted so that distal perfusion pressure approximated systemic mean arterial blood pressure after which blood flow was kept constant for the remainder of each experiment. Changes in resistance then varied directly as distal perfusion pressure in a manner similar to that described by Ohm's law, such that:
Vascular Resistance=Perfusion Pressure Blood Flow
Thus, by maintaining blood flow constant for the duration of each experiment, changes in distal perfusion pressure directly reflected vascular resistance such that a decrease in pressure signifies vasodilation and an increase in pressure signifies vasoconstriction. Direct injection into the perfusion circuit could thus be used to assess the vascular biology and pharmacology of substances believed to exert actions on in vivo vascular smooth muscle tone.

[5] = labeling 10 μM (compound 7), 20 μM (conjugate, FITC-heparin)

Compound: CC(C)[C@@H]1NC(=O)[C@H](CCCCN)NC(=O)[C@@H](Cc2c[nH]c3ccccc23)NC(=O)[C@H](Cc2ccc(O)cc2)NC(=O)[C@@H](NC(=O)[C@H](N)Cc2ccc3ccccc3c2)CSSC[C@@H](C(=O)N[C@H](C(N)=O)[C@@H](C)O)NC1=O [Angiopeptin]
Myointimal thickening (myointimal thickening): reduction of myointimal thickening

% Bound ([1]; 5% BSA): 94.96% | % Free ([1]; 5% BSA): 5.04%
Compound: CCCCCCCCCCCCCCCCCCCCCC[N+]1=C(C=CC=C2N(CCCCCCCCCCCCCC)c3ccc(CNC=O)cc3C2(C)C)C(C)(C)c2ccccc21 [Compound 7, 1'-docosanyl-5(N-formylaminomethyl)-1-tetradecyl-3,3,3',3'tetramethylindocarbocyanine iodide]
Fluorescence intensity, supernatant [1, 5]: 73.69 | Fluorescence intensity, suspension [1, 5]: 1439.00

Applied material (radioactivity) remaining within the artery ([2]; after first 24 hour, mean±sem, n=4): 34.0±10.9% | Elimination half-life after the first 24 hours ([2]; after first 24 hours): 365.8 ± 69.4 h | Initial elimination half-life ([2]; first 24 hour): 18.5 ± 6.96 h | Time detectable after application ([2]; rabbit, in vivo): at least 3 weeks
Compound: CCCCCCCCCCCCCCCCCCCCCCN1C(=CC=CC2=[N+](CCCCCCCCCCCCCC)c3ccccc3C2(C)C)C(C)(C)c2cc([125I])ccc21 [Compound 12, N-docosanyl-N'-tetradecyl-5-iodo-3,3,3',3'-tetramethylindocarbocyanine chloride]

Compound: CCCCCCCCCCCCCCCCCCCCCCN1C(=CC=CC2=[N+](CCCCCCCCCCCCCC)c3ccc(CNC(=O)CCCC(=O)NN=CCCCC(=O)N[C@H]4CCc5cc(OC)c(OC)c(OC)c5-c5ccc(OC)c(=O)cc54)cc3C2(C)C)C(C)(C)c2ccccc21 [Compound 19, 7-N(5-oxopentanoyl) deacetyl colchicine Lipophilic Cyanine Hydrazone Conjugate]
Free colchicine hydrolysis product detected by HPLC ([3]; pH 4.21, 5.74, 7.35): the expected aidehyde, compound 18 | Cleavage of (19) to produce (18) ([3]; pH 4.21, 24 hours): 78% | Cleavage of (19) to produce (18) ([3]; pH 4.21, 48 hours): 100% | Cleavage of (19) to produce (18) ([3]; pH 5.74, 24 hours): 45% | Cleavage of (19) to produce (18) ([3]; pH 5.74, 48 hours): 100% | Cleavage of (19) to produce (18) ([3]; pH 7.35, 24 hours): 36% | Cleavage of (19) to produce (18) ([3]; pH 7.35, 48 hours): 77% | Cell count (A10 cells; day 0): 2291.12 cells per square centimeter | Cell count (A10 cells; day 1): 2625.33 cells per square centimeter | Cell count (A10 cells; day 2): 2369.45 cells per square centimeter | Cell count (A10 cells; day 3): 2206.27 cells per square centimeter | Cell count (A10 cells; day 6): 8800.26 cells per square centimeter | Cell count (A10 cells; day 7): 10895.65 cells per square centimeter | Cell-associated fluorescence (A10 cells; flow cytometry): significant cell-associated fluorescence

Compound: CN(C/C=C/C#CC(C)(C)C)Cc1cccc2ccccc12 [Terbinafine]
Myointimal thickening (myointimal thickening): reduction of myointimal thickening

Compound: CC(C)NCC(O)c1ccc(O)c(O)c1 (stereo not drawn) [isoproterenol, reference compound]
Effect of antagonist [D-Pro^2,D-Trp^7.9]-substance P on the response ([4]; during infusion of antagonist): not antagonized by the SP antagonist | Hind-limb perfusion pressure response ([4]; local injection, no antagonist): dose related decrease in perfusion pressure

Compound: interferon-gamma
Myointimal thickening (myointimal thickening): reduction of myointimal thickening
